Measured values from patent US9840507B2, “5,6-dihydro-imidazo[1,2-a]pyrazin-8-ylamine derivatives useful as inhibitors of beta-secretase (BACE)” (Janssen Pharmaceutica, NV, priority 2010, dated 2017).
Like-named read-outs stand apart in the source and are kept apart here.

Experiments:
[1] = tested on: Aβ42 produced and secreted into the medium of human neuroblastoma SKNBE2 cells; assay: Cellular αlisa assay in SKNBE2 cells, Aβ42; assay type: cell-based; details: for IC50: Homo sapiens, SKNBE2, 18 h, read-out: Cellular αlisa assay in SKNBE2 cells Aβ42 pIC50 (converted)
Protocol: (§1) In two αlisa assays the levels of Aβtotal and Aβ42 produced and secreted into the medium of human neuroblastoma SKNBE2 cells are quantified. The assay is based on the human neuroblastoma SKNBE2 expressing the wild type Amyloid Precursor Protein (hAPP695). The compounds are diluted and added to these cells, incubated for 18 hours and then measurements of Aβ42 and Aβtotal are taken. Aβtotal and Aβ42 are measured by sandwich αlisa. αlisa is a sandwich assay using biotinylated antibody AbN/25 attached to streptavidin coated beads and antibody Ab4G8 or cAb42/26 conjugated acceptor beads for the detection of Aβtotal and Aβ42 respectively. In the presence of Aβtotal or Aβ42, the beads come into close proximity. The excitation of the Donor beads provokes the release of singlet oxygen molecules that triggers a cascade of energy transfer in the Acceptor beads, resulting in light emission. Light emission is measured after 1 hour incubation (excitation at […] and emission at 615 nm).
(§2) A best-fit curve is fitted by a minimum sum of squares method to the plot of % Controlmin versus compound concentration.
(§3) LC=Median of the low control values
(§4) =Low control: cells preincubated without compound, without biotinylated Ab in the αlisa
(§5) HC=Median of the High control values
(§6) =High Control: cells preincubated without compound % Effect=100−[(sample−LC)/(HC−LC)*100] % Control=(sample/HC)*100% % Controlmin=(sample−LC)/(HC−LC)*100

[2] = molecular target: T1, recombinant BACE1 protein (Homo sapiens, UniProt P56817); assay: Biochemical FRET based assay; details: recombinant BACE1 1 μg/ml, 10 μm substrate, 120 minutes, room temperature, pH 5.0; for IC50: read-out: Biochemical FRET based assay pIC50 (converted)
T1 construct: recombinant BACE1 protein in a final concentration of 1 μg/ml
Excerpt: This assay is a Fluorescence Resonance Energy Transfer Assay (FRET) based assay. The substrate for this assay is an APP derived 13 amino acids peptide that contains the ‘Swedish’ Lys-Met/Asn-Leu mutation of the amyloid precursor protein (APP) β-secretase cleavage site. This substrate also contains two fluorophores: (7-methoxycoumarin-4-yl) acetic acid (Mca) is a fluorescent donor with excitation wavelength at 320 nm and emission at 405 nm and 2,4-Dinitrophenyl (Dnp) is a proprietary quencher acceptor. […] Upon cleavage by BACE1, the fluorophore Mca is separated from the quenching group Dnp, restoring the full fluorescence yield of the donor. The increase in fluorescence is linearly related to the rate of proteolysis (Koike H et al. J. Biochem. 1999, 126, 235-242).
Briefly in a 384-well format recombinant BACE1 protein in a final concentration of 1 μg/ml is incubated for 120 minutes at room temperature with 10 μm substrate in incubation buffer (40 mM Citrate buffer pH 5.0, 0.04% PEG, 4% DMSO) in the absence or presence of compound. Next the amount of proteolysis is directly measured by fluorescence measurement at T=0 and T=120 (excitation at 320 nm and emission at 405 nm).
as §3
=Low control: Reaction without enzyme
as §5
=High Control: Reaction with enzyme % Effect=100−[(sample−LC)/(HC−LC)*100] % Control=(sample/HC)*100% % Controlmin=(sample−LC)/(HC−LC)*100

[3] = tested on: Aβtotal produced and secreted into the medium of human neuroblastoma SKNBE2 cells; assay: Cellular αlisa assay in SKNBE2 cells, Aβtotal; assay type: cell-based; details: for IC50: Homo sapiens, SKNBE2, 18 h, read-out: Cellular αlisa assay in SKNBE2 cells Aβtotal pIC50 (converted)
Protocol: as §1, §2, §3, §4, §5, §6

[4] = SKNBE2 cells expressing hAPP695, incubated for 18 hours

T1 sequence (P56817 46-501): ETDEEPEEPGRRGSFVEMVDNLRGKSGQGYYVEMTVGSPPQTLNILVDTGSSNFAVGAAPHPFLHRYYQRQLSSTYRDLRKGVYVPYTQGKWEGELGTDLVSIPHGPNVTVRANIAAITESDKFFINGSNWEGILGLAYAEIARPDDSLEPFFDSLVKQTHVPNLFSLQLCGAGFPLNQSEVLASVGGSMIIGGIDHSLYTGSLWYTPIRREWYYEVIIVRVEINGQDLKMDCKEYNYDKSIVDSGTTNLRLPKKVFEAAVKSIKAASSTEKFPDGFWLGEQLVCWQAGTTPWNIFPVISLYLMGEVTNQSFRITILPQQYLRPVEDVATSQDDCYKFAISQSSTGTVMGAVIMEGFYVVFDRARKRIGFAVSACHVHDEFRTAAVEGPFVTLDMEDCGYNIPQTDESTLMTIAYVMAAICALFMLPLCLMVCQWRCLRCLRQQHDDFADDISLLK

Row | SMILES | IC50 [1, 4] [nM] | IC50 [2] [nM] | IC50 [3, 4] [nM] | Biochemical FRET based assay pIC50 [2] | IC50 [1] [nM] | IC50 [3] [nM] | Cellular αlisa assay in SKNBE2 cells Aβ42 pIC50 [1, 4] | Cellular αlisa assay in SKNBE2 cells Aβtotal pIC50 [3, 4]
1 | CC1(c2cc(-c3cncc(Cl)c3)c(F)cc2F)Cn2ccnc2C(N)=N1 (single isomer, unassigned) [Compound 12] | 2340 | 18600 | 2190 | – | – | – | – | –
2 | C[C@@]1(c2cccc(-c3cncnc3)c2)Cn2ccnc2C(N)=N1 [Compound 4, (R)-6-methyl-6-(3-pyrimidin-5-yl-phenyl)-5,6-dihydro-imidazo[1,2-a]pyrazin-8-ylamine] | 7760 | – | 7760 | >4.52 | – | – | – | –
3 | C[C@@]1(c2cc(NC(=O)c3ccc(F)cn3)ccc2F)Cn2c(Cl)cnc2C(N)=N1 [Compound 58] | 20 | 75.9 | 20 | – | – | – | – | –
4 | Cc1nc(C(=O)Nc2ccc(F)c([C@]3(C)Cn4ccnc4C(N)=N3)c2)c(C)o1 [Compound 46] | 89.1 | 380 | 83.2 | – | – | – | – | –
5 | Cc1nc(C(=O)Nc2ccc(F)c([C@]3(C)Cn4cc(C(F)(F)F)nc4C(N)=N3)c2)c(C(F)(F)F)o1 [Compound 39] | 158 | 269 | 158 | – | – | – | – | –
6 | CC1(c2cccc(-c3cncnc3)c2)Cn2ccnc2C(N)=N1 (racemic) [Compound 1, rac-6-methyl-6-(3-pyrimidin-5-yl-phenyl)-5,6-dihydro-imidazo[1,2-a]pyrazin-8-ylamine] | 191 | 9770 | 174 | – | – | – | – | –
7 | COc1cnc(C(=O)Nc2ccc(F)c([C@]3(C)Cn4cc(Cl)nc4C(N)=N3)c2)cn1 [Compound 52] | 40.7 | 97.7 | 38 | – | – | – | – | –
8 | COc1cnc(C(=O)Nc2ccc(F)c([C@]3(C)Cn4cc(Br)nc4C(N)=N3)c2)cn1 [Compound 55] | 31.6 | 112 | 32.4 | – | – | – | – | –
9 | C[C@@]1(c2cc(NC(=O)c3ccn(C(F)F)n3)ccc2F)Cn2ccnc2C(N)=N1 [Compound 42] | 19.1 | 115 | 20 | – | – | – | – | –
10 | C[C@@]1(c2cc(NC(=O)c3ccc(F)cn3)ccc2F)Cn2cc(Cl)nc2C(N)=N1 [Compound 53] | 36.3 | 61.7 | 35.5 | – | – | – | – | –
11 | CCOc1cnc(C(=O)Nc2ccc(F)c([C@]3(C)Cn4ccnc4C(N)=N3)c2)cn1 [Compound 23] | 25.1 | 457 | 37.2 | – | – | – | – | –
12 | C[C@@]1(c2cc(NC(=O)c3ncc(Cl)cc3Cl)ccc2F)Cn2cc(C(F)(F)F)nc2C(N)=N1 [Compound 25] | 21.9 | 46.8 | 17 | – | – | – | – | –
13 | CC1(c2cc(-c3cncnc3)ccc2F)Cn2ccnc2C(N)=N1 (single isomer, unassigned) [Compound 7] | 2750 | 20000 | 2400 | – | – | – | – | –
14 | C[C@@]1(c2cc(NC(=O)c3ccsn3)ccc2F)Cn2cc(C(F)(F)F)nc2C(N)=N1 [Compound 40] | 87.1 | 229 | 91.2 | – | – | – | – | –
15 | C[C@@]1(c2cc(NC(=O)c3ncc(C#N)cc3F)ccc2F)Cn2ccnc2C(N)=N1 [Compound 22] | 9.55 | 95.5 | 8.51 | – | – | – | – | –
16 | C[C@@]1(c2cc(NC(=O)c3ccn(C(F)F)n3)ccc2F)Cn2cc(C(F)F)nc2C(N)=N1 [Compound 51] | – | 162 | – | – | – | – | – | –
17 | C[C@@]1(c2cc(NC(=O)c3ccc(F)cn3)ccc2F)Cn2cc(Br)nc2C(N)=N1 [Compound 54] | 32.4 | 75.9 | 35.5 | – | – | – | – | –
18 | C[C@@]1(c2cc(NC(=O)c3ncc(Cl)cc3Cl)ccc2F)Cn2ccnc2C(N)=N1 [Compound 19] | 11 | 49 | 9.77 | – | – | – | – | –

Row | SMILES | IC50 [1, 4] [nM] | IC50 [2] [nM] | IC50 [3, 4] [nM] | Biochemical FRET based assay pIC50 [2] | IC50 [1] [nM] | IC50 [3] [nM] | Cellular αlisa assay in SKNBE2 cells Aβ42 pIC50 [1, 4] | Cellular αlisa assay in SKNBE2 cells Aβtotal pIC50 [3, 4]
19 | NC1=NC(c2cc(NC(=O)c3ncc(Cl)cc3F)ccc2F)(C(F)F)Cn2ccnc21 (stereo not drawn) [Compound 33] | 355 | 224 | 275 | – | – | – | – | –
20 | CC1(c2cccc(-c3cc(Cl)cc(Cl)c3)c2)Cn2ccnc2C(N)=N1 (racemic) [Compound 3, rac-6-(3′,5′-dichloro-biphenyl-3-yl)-6-methyl-5,6-dihydro-imidazo[1,2-a]pyrazin-8-ylamine] | – | 26900 | – | – | 7940 | 7080 | – | –
21 | NC1=NC(c2cc(NC(=O)c3ccc(F)cn3)ccc2F)(C(F)F)Cn2ccnc21 (stereo not drawn) [Compound 27] | – | 589 | – | – | – | – | 6.05 | 6.11
22 | NC1=NC(c2cc(NC(=O)c3ccc(F)cn3)ccc2F)(C(F)F)Cn2ccnc21 (stereo not drawn) [Compound 28] | – | 295 | – | – | – | – | 6.17 | 6.19
23 | C[C@@]1(c2cc(NC(=O)c3ccc(F)cn3)ccc2F)Cn2c(C#N)cnc2C(N)=N1 [Compound 66, (R)—N-{3-[8-amino-3-cyano-6-methyl-5,6-dihydroimidazo[1,2-a]pyrazin-6-yl]-4-fluorophenyl}-5-fluoropyridine-2-carboxamide] | – | 63.1 | – | – | – | – | – | –
24 | COc1cnc(C(=O)Nc2ccc(F)c([C@]3(C)Cn4cc(C(F)(F)F)nc4C(N)=N3)c2)cn1 [Compound 26] | 85.1 | 234 | 72.4 | – | – | – | – | –
25 | C[C@@]1(c2cc(NC(=O)c3ccc(Cl)cn3)ccc2F)Cn2cc(C(F)F)nc2C(N)=N1 [Compound 50] | 7.41 | 58.9 | 8.13 | – | – | – | – | –
26 | Cc1nc(C(=O)Nc2ccc(F)c([C@]3(C)Cn4cc(C(F)(F)F)nc4C(N)=N3)c2)co1 [Compound 38] | 42.7 | 100 | 41.7 | – | – | – | – | –
27 | C[C@@]1(c2cc(NC(=O)c3ncc(Cl)cc3F)ccc2F)Cn2ccnc2C(N)=N1 [Compound 20] | 17.4 | 75.9 | 17.8 | – | – | – | – | –
28 | NC1=NC(c2cc(NC(=O)c3ccc(F)cn3)ccc2F)(C(F)F)Cn2ccnc21 (stereo not drawn) [Compound 29] | – | > 30200 | – | – | – | – | <5 | <5
29 | Cc1nc(C(=O)Nc2ccc(F)c([C@]3(C)Cn4ccnc4C(N)=N3)c2)c(C(F)(F)F)o1 [Compound 44] | 95.5 | 380 | 93.3 | – | – | – | – | –
30 | COc1ccc(C(=O)Nc2ccc(F)c([C@]3(C)Cn4ccnc4C(N)=N3)c2)nc1 [Compound 17] | 17.4 | 107 | 16.6 | – | – | – | – | –
31 | C[C@@]1(c2cc(NC(=O)c3ccc(F)cn3)ccc2F)Cn2cc(C#N)nc2C(N)=N1 [Compound 56, (R)—N-{3-[8-amino-2-cyano-6-methyl-5,6-dihydroimidazo[1,2-a]pyrazin-6-yl]-4-fluorophenyl}-5-fluoropyridine-2-carboxamide] | 20.9 | 83.2 | 21.9 | – | – | – | – | –
32 | C[C@@]1(c2cc(NC(=O)c3ccsn3)ccc2F)Cn2ccnc2C(N)=N1 [Compound 45] | 66.1 | 427 | 67.6 | – | – | – | – | –
33 | COc1cnc(C(=O)Nc2ccc(F)c([C@]3(C)Cn4c(Cl)cnc4C(N)=N3)c2)cn1 [Compound 57] | 13.5 | 66.1 | 14.8 | – | – | – | – | –
34 | C[C@@]1(c2cccc(-c3cc(Cl)cc(Cl)c3)c2)Cn2ccnc2C(N)=N1 [Compound 5, (R)-6-(3′,5′-dichloro-biphenyl-3-yl)-6-methyl-5,6-dihydro-imidazo[1,2-a]pyrazin-8-ylamine] | – | 14100 | – | – | 5890 | 5010 | – | –
35 | CC1(c2cc(NC(=O)c3ccc(Cl)cn3)ccc2F)Cn2ccnc2C(N)=N1 (single isomer, unassigned) [Compound 8] | 12.3 | – | 11 | – | – | – | – | –
36 | C[C@@]1(c2cc(NC(=O)c3ccn(C(F)F)n3)ccc2F)Cn2cc(C(F)(F)F)nc2C(N)=N1 [Compound 37] | 15.8 | – | 16.6 | – | – | – | – | –
